The target in test [1] is T1, progesterone receptor-B (Homo sapiens, UniProt P06401).
T1 sequence (P06401 1-933): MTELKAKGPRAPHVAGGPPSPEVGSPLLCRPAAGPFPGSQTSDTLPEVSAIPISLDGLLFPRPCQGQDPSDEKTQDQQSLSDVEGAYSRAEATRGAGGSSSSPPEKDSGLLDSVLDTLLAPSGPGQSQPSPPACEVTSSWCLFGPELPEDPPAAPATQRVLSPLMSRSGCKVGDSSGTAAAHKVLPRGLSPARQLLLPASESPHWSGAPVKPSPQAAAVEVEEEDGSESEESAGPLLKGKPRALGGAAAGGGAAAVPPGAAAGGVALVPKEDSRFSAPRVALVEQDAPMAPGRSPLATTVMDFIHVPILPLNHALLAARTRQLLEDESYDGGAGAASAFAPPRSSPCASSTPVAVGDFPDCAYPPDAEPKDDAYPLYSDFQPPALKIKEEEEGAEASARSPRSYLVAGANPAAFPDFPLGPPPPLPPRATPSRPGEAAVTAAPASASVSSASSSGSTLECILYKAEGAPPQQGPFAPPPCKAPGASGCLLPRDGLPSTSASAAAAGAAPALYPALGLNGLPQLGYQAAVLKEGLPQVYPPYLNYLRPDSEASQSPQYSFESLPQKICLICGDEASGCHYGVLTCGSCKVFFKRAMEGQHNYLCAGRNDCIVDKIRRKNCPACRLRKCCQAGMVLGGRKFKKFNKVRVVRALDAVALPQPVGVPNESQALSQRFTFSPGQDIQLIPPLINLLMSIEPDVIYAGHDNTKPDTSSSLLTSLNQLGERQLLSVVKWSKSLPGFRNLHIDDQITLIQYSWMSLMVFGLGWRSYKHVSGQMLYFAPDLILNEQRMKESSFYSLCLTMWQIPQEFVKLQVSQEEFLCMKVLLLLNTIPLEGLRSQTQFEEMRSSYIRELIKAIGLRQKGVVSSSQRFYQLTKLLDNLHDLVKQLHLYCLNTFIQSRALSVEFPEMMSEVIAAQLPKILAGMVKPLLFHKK
In words: Progesterone receptor-B transactivation, agonistic mode (CHO cells, luciferase). The settings on record: for EC50: CHO cells, agonistic mode, read-out: PRBagoEC50; for Emax: CHO, read-out: PRBago Eff (%). Type of test: cell-based. The source says:
For selecting compounds of the subject invention with a mixed modulating effect on the progesterone receptor, testing in the agonistic mode must result in an intrinsic activity of between about 15% and about 85% of the maximal activity when (16α)-16-ethyl-21-hydroxy-19-norpregn-4-ene-3,20-dione is used as a reference. Moreover, this maximal agonistic activity should be reached at a concentration of 10^−6 or less, and preferably at a concentration of 10^−8 or less.
(§1) The progestagenic activity of a compound of the invention (EC50 and intrinsic agonistic activity) was determined in an in vitro bioassay of Chinese hamster ovary (CHO) cells as described by W. G. E. J. Schoonen et al. (Anal. Biochem. 261 (1998), 222-224). […] The efficacy of the antagonistic effect was expressed as the percentage of the effect produced by a standard antagonist, (6β,11β,17β)-11-[4-(dimethylamino)phenyl]-4′,5′-dihydro-6-methylspiro[estra-4,9-diene-17,2′(3′H)-furan]-3-one.
(§2) It will be recognized by those skilled in the art that, in the setting described above, the EC50 determined is more or less absolute and depends on the intrinsic property of the tested compound itself, however, the IC50 depends on the amount and agonistic EC50 of the inducer as well as on the intrinsic property of the tested compound itself. Thus, with the same amount of inducer, a relatively strong antagonist will be able to produce a measurable IC50 whereas a relatively weak antagonist may fail to produce a detectable result.

Test [2] deals with T1, progesterone receptor-B. In words: Progesterone receptor-B transactivation, antagonistic mode (inhibition of luciferase transactivation by inducer, CHO cells). Type of test: cell-based. As to conditions: for Emax: CHO, read-out: PRBant Eff (%); for EC50: in the presence of 0.1 nM inducer (16α)-16-ethyl-21-hydroxy-19-norpregn-4-ene-3,20-dione, read-out: PRBant EC50. On the procedure:
In the antagonistic mode, testing must result in an intrinsic activity of between about 85% and about 15% of the maximal activity when (6β,11β,17β)-11-[4-(dimethylamino)phenyl]-4′,5′-dihydro-6-methylspiro[estra-4,9-diene-17,2′(3′H)-furan]-3-one is used as a reference.
as §1, §2

The mark [3] stands for this setting: intrinsic agonistic activity, relative to reference (16α)-16-ethyl-21-hydroxy-19-norpregn-4-ene-3,20-dione.
Setting [4] is: intrinsic antagonistic activity, percentage of effect of standard antagonist (6β,11β,17β)-11-[4-(dimethylamino)phenyl]-4′,5′-dihydro-6-methylspiro[estra-4,9-diene-17,2′(3′H)-furan]-3-one, 0.1 nM inducer.

Structures can show the parent of a compound that is named as a salt. Bounds are passed on as bounds.

For `CC[C@@H]1C[C@H]2[C@@H]3CCC4=CC(=O)CCC4=C3[C@@H](c3ccc(-c4cccnc4)cc3)C[C@]2(C)[C@H]1C(=O)C1CC1` [Example 16, (11β,16α,17β)-17-cyclopropylcarbonyl-16-ethyl-11-[4-(3-pyridinyl)-phenyl]-estra-4,9-dien-3-one], the figures for the EC50 at progesterone receptor-B [1] and at progesterone receptor-B [2] were 0.23 nM and 0.596 nM, respectively. Moreover, the values for the Emax on progesterone receptor-B [1] (setting [3]) and at progesterone receptor-B [2] (setting [4]) were 34% and 53%, respectively.
The matching figures for `CC[C@@H]1C[C@H]2[C@@H]3CCC4=CC(=O)CCC4=C3[C@@H](c3ccc(-c4ccc(OC)nc4)cc3)C[C@]2(C)[C@H]1C(=O)C1CC1` [Example 17, (11β,16α,17β)-17-cyclopropylcarbonyl-16-ethyl-11-[4-(6-methoxy-pyridin-3-yl)phenyl]-estra-4,9-dien-3-one]: 1.3 nM, 7.89 nM, 42% and 51.7%.
Consider `C[C@]12C[C@H](c3ccc(-c4cccnc4)cc3)C3=C4CCC(=O)C=C4CC[C@H]3[C@@H]1CC[C@@H]2C(=O)C1CC1` [Example 18, (11β,17β)-17-cyclopropylcarbonyl-11-[4-(3-pyridinyl)phenyl]estra-4,9-dien-3-one], for which the EC50 on progesterone receptor-B [1] amounted to 0.82 nM; on progesterone receptor-B [2], 0.751 nM. Further, the Emax was determined as 36% at progesterone receptor-B [1] (setting [3]) and 66% on progesterone receptor-B [2] (setting [4]).
In the same order, the values of `COc1ccc(-c2ccc([C@H]3C[C@]4(C)[C@@H](C(=O)C5CC5)CC[C@H]4[C@@H]4CCC5=CC(=O)CCC5=C43)cc2)cn1` [Example 19, (11β,17β)-17-cyclopropylcarbonyl-11-[4-(6-methoxypyridin-3-yl)phenyl]estra-4,9-dien-3-one] are 0.51 nM, 0.427 nM, 28.3% and 57%.
The matching figures for `C[C@]12C[C@H](c3ccc(-c4cccnc4)cc3)C3=C4CCC(=O)C=C4CC[C@H]3[C@@H]1CC[C@]2(C)C(=O)C1CC1` [Example 20, (11β,17β)-17-cyclopropylcarbonyl-17-methyl-11-[4-(3-pyridinyl)-phenyl]estra-4,9-dien-3-one]: 0.49 nM, 0.13 nM, 37.5% and 58%.
For the compound `C[C@]12C[C@H](c3ccc(-c4cccnc4)cc3)C3=C4CCC(=O)C=C4CC[C@H]3[C@@H]1C[C@H]1C[C@]12C(=O)C1CC1` [Example 21, (11β,16α,17β)-17-cyclopropylcarbonyl-16,17-dihydro-11-[4-(3-pyridinyl)phenyl]-3′H-cyclopropa[16,17]estra 4,9,16-trien-3-one], the EC50 at progesterone receptor-B [1] turned out to be 2 nM; at progesterone receptor-B [2], 1.4 nM. Besides, the Emax at progesterone receptor-B [1] (setting [3]) is 18%; on progesterone receptor-B [2] (setting [4]) it was 58%.
For `C[C@@H]1C[C@H]2[C@@H]3CCC4=CC(=NO)CCC4=C3[C@@H](c3ccc(-c4cccnc4)cc3)C[C@]2(C)[C@H]1C(=O)C1CC1` [Example 22, (11β,16α,17β)-17-cyclopropylcarbonyl-16-methyl-11-[4-(3-pyridinyl)-phenyl]estra-4,9-dien-3-one 3-oxime], the EC50 at progesterone receptor-B [1] stood at 0.64 nM; at progesterone receptor-B [2] it was 1.47 nM. The Emax at progesterone receptor-B [1] (setting [3]) amounted to 43%; at progesterone receptor-B [2] (setting [4]), 32%.
In the same order, the values of `CC12CC(c3ccc(-c4cccnc4)cc3)C3=C4CCC(=O)C=C4CCC3C1CCC21CCCC1=O` (stereo not drawn) [Example 23, (11β)-11-[4-(3-pyridinyl)phenyl]-17,24-cyclo-19,21-dinorchola 4,9-diene-3,20-dione] are 0.29 nM, 0.325 nM, 17% and 70.8%.
The matching figures for `COc1ccc(-c2ccc([C@H]3C[C@@]4(C)[C@@H](CC[C@@]45CCCC5=O)[C@@H]4CCC5=CC(=O)CCC5=C43)cc2)cn1` [Example 24, (11β)-11-[4-(6-methoxypyridin-3-yl)phenyl]-17,24-cyclo-19,21-dinorchola 4,9-diene-3,20-dione]: 0.15 nM, 0.546 nM, 20% and 62%.
For the compound `CC12CC(c3ccc(-c4cccnc4)cc3)C3=C4CCC(=O)C=C4CCC3C1CCC21CCCC1=O` (stereo not drawn) [Example 25, (11β)-11-[4-(3-pyridinyl)phenyl]-17,24-cyclo-19,21-dinorchola-4,9-diene-3,20-dione hydrochloride], the EC50 on progesterone receptor-B [1] was 0.48 nM; at progesterone receptor-B [2], 1.1 nM. Also, the “PRBago Eff (%)” value on progesterone receptor-B [1] (setting [3]) is listed as 17%. At progesterone receptor-B [2] (intrinsic antagonistic activity, percentage of effect of standard antagonist (6β,11β,17β)-11-[4-(dimethylamino)phenyl]-4′,5′-dihydro-6-methylspiro[estra-4,9-diene-17,2′(3′H)-furan]-3-one, 0.1 nM inducer, hydrochloride), the “PRBant Eff (%)” value turned out to be 66%.
Regarding `C[C@@H]1C[C@@H]2C(=C3CCC(=O)C=C31)[C@@H](c1ccc(-c3cccnc3)cc1)C[C@@]1(C)[C@H]2C[C@@H](C)[C@@H]1C(=O)C1CC1` [Example 26, (6β,11β,16α,17β)-17-cyclopropylcarbonyl-6,16-dimethyl-11-[4-(3-pyridinyl)-phenyl]estra-4,9-dien-3-one], the EC50 at progesterone receptor-B [1] turned out to be 0.809 nM; at progesterone receptor-B [2], 2.75 nM. For the same compound, the Emax worked out at 46% on progesterone receptor-B [1] (setting [3]) and 17% at progesterone receptor-B [2] (setting [4]).
Take `C[C@@H]1C[C@H]2[C@@H]3CCC4=CC(=O)CCC4=C3[C@@H](c3ccc(-c4ncccn4)cc3)C[C@]2(C)[C@H]1C(=O)C1CC1` [Example 27, (11β,16α,17β)-17-cyclopropylcarbonyl-16-methyl-11-[4-(pyrimidin-2-yl)phenyl]estra-4,9-dien-3-one]: the results for the EC50 at progesterone receptor-B [1] and at progesterone receptor-B [2] were 2.54 nM and 3.25 nM, respectively. The Emax on progesterone receptor-B [1] (setting [3]) was 52%; at progesterone receptor-B [2] (setting [4]), over 27%.
